Reference: patent publication US8722849B2, “Polypeptides” (Novo Nordisk A/S, priority 2011, dated 2014)
Starred links: 1 amine or outer side, 2 acyl side, 3 side chain; linkers in the order of their positions; H or OH if unused. Positions of bridges follow the written chain, without caps; N, C: chain ends. Residues, ends and D or L forms follow the SMILES beside them. Groups on a side chain read outwards from the residue. *: point of attachment. C20 diacid = O=C(O)CCCCCCCCCCCCCCCCCCC(=O)*; C18 diacid = O=C(O)CCCCCCCCCCCCCCCCC(=O)*; γGlu = O=C(O)[C@H](CCC(=O)[*:2])N[*:1]; AEEA = NCCOCCOCC(=O)O

Columns and labels:
Assay type in all cases: cell-based
[1] = target: T1, human calcitonin receptor (Homo sapiens, UniProt P30988); assay: Assay (II)a functional CRE-luciferase assay, human calcitonin receptor; conditions: Table 7; human calcitonin (CTa) receptor
T1 construct: expressed in transfected cells; host or cells: BHK570
T1 sequence (P30988 25-474): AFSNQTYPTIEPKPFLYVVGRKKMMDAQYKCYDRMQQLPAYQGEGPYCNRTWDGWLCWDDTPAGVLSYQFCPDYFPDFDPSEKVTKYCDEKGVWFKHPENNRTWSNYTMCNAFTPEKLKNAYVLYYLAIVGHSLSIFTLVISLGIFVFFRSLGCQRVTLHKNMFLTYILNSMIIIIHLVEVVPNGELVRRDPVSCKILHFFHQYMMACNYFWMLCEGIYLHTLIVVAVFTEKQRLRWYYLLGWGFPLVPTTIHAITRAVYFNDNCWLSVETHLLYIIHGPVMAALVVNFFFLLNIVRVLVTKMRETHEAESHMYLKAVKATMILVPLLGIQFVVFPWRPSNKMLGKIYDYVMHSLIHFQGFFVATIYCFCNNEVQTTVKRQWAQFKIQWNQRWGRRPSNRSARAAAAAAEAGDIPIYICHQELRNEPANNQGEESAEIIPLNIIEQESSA

[2] = target: T2, human amylin receptor (amylin 3(a) receptor: human calcitonin receptor + RAMP-3) (Homo sapiens, UniProt O60896+P30988); assay: Assay (II)a functional CRE-luciferase assay, human amylin receptor; conditions: Table 2; BHK amylin 3(a)-receptor/CRE-luc cells
T2 construct: expressed in transfected cells; host or cells: BHK570
T2 sequence (P30988 25-474): T1 sequence (P30988 25-474)
T2 sequence (O60896 24-148 partner): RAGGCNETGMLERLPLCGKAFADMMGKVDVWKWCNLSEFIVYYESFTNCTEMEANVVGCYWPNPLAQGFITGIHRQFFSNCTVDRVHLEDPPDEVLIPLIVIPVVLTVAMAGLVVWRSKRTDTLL

[3] = target: T3, rat calcitonin (a) receptor (Rattus norvegicus, UniProt P32214); assay: Assay (II)b functional cAMP FlashPlate assay, rat calcitonin receptor; conditions: Table 11; read-out: CTa receptor rat EC50
T3 construct: expressed in transfected cells; host or cells: BHK tk'ts 13
T3 sequence (P32214 25-479 isoform P32214-2 limits assumed): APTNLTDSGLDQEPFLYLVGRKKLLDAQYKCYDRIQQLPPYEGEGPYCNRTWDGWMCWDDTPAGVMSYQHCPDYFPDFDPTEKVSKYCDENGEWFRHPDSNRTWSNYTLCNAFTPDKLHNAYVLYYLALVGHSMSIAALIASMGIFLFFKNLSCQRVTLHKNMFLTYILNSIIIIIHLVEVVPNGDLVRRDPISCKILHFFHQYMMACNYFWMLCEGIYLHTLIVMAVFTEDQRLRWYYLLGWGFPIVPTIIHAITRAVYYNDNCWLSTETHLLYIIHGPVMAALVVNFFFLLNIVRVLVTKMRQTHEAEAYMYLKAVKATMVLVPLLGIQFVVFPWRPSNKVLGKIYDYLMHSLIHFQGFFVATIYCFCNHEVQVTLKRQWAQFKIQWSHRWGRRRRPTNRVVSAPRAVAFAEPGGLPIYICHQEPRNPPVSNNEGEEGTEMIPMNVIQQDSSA
In short: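 BHK tk'ts 13 cells transiently transfected with rat calcitonin(a) receptor, alone or with rat RAMP3 (amylin 3(a)), were stimulated 24 hours later with sample for 30 min in buffer containing IBMX. cAMP measured by competitive radioactive FlashPlate assay, scintillation read after 3 h detection incubation.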

Row | EC50 [1] [nM] | EC50 [2] [nM] | EC50 [3] [nM] | SMILES
1 | 0.045 | 0.0385 | 0.167 | CC[C@H](C)[C@H](NC(=O)[C@H](CCCCNC(=O)COCCOCCNC(=O)COCCOCCNC(=O)CC[C@H](NC(=O)CCCCCCCCCCCCCCCCC(=O)O)C(=O)O)NC(=O)CNC(=O)[C@H](Cc1ccccc1)NC(=O)[C@H](CC(N)=O)NC(=O)[C@H](CC(N)=O)NC(=O)[C@H](CO)NC(=O)[C@H](CO)NC(=O)[C@H](Cc1c[nH]cn1)NC(=O)[C@H](Cc1c[nH]cn1)NC(=O)[C@H](CC(C)C)NC(=O)[C@H](Cc1ccccc1)NC(=O)[C@H](CCC(=O)O)NC(=O)[C@H](C)NC(=O)[C@H](CC(C)C)NC(=O)[C@H](CCCNC(=N)N)NC(=O)[C@H](CCC(N)=O)NC(=O)[C@@H](NC(=O)[C@H](C)NC(=O)[C@@H]1CSSC[C@H](NC(=O)[C@@H](N)CCCCN)C(=O)N[C@@H](CC(N)=O)C(=O)N[C@@H]([C@@H](C)O)C(=O)N[C@@H](C)C(=O)N[C@@H]([C@@H](C)O)C(=O)N1)[C@@H](C)O)C(=O)N[C@@H](CC(C)C)C(=O)N1CCC[C@H]1C(=O)N1CCC[C@H]1C(=O)N[C@H](C(=O)N[C@@H](CC(N)=O)C(=O)N[C@H](C(=O)NCC(=O)N[C@@H](CO)C(=O)N[C@@H](CC(N)=O)C(=O)N[C@H](C(=O)N[C@@H](Cc1ccc(O)cc1)C(N)=O)[C@@H](C)O)C(C)C)[C@@H](C)O [Example 73, N-epsilon25-[2-(2-{2-[2-(2-{2-[(S)-4-Carboxy-4-(17-carboxyheptadecanoylamino)butyrylamino]ethoxy}ethoxy)acetylamino]ethoxy}ethoxy)acetyl]-[Glu14,His17,Lys25]-pramlintide] (H-KCNTATCATQRLAEFLHHSSNNFGK([AEEA-AEEA-γGlu-C18 diacid])ILPPTNVGSNTY-NH2; disulfide 2-7 (inferred); N-terminus and C-terminus assumed)
2 | 0.0855 | 0.121 | 1.04 | CC[C@H](C)[C@H](NC(=O)[C@@H]1CCCN1C(=O)CNC(=O)[C@H](Cc1ccccc1)NC(=O)[C@H](CC(N)=O)NC(=O)[C@H](CC(N)=O)NC(=O)[C@H](CO)NC(=O)[C@H](CO)NC(=O)[C@H](Cc1c[nH]cn1)NC(=O)[C@H](Cc1c[nH]cn1)NC(=O)[C@H](CC(C)C)NC(=O)[C@H](Cc1ccccc1)NC(=O)[C@H](CCC(=O)O)NC(=O)[C@H](C)NC(=O)[C@H](CC(C)C)NC(=O)[C@H](CCCNC(=N)N)NC(=O)[C@H](CCC(N)=O)NC(=O)[C@@H](NC(=O)[C@H](C)NC(=O)[C@@H]1CSSC[C@H](NC(=O)[C@H](Cc2c[nH]cn2)NC(=O)CC[C@H](NC(=O)CCCCCCCCCCCCCCCCCCC(=O)O)C(=O)O)C(=O)N[C@@H](CC(N)=O)C(=O)N[C@@H]([C@@H](C)O)C(=O)N[C@@H](C)C(=O)N[C@@H]([C@@H](C)O)C(=O)N1)[C@@H](C)O)C(=O)N[C@@H](CC(C)C)C(=O)N1CCC[C@H]1C(=O)N1CCC[C@H]1C(=O)N[C@H](C(=O)N[C@@H](CC(N)=O)C(=O)N[C@H](C(=O)NCC(=O)N[C@@H](CO)C(=O)N[C@@H](Cc1c[nH]cn1)C(=O)N[C@H](C(=O)N[C@@H](Cc1ccc(O)cc1)C(N)=O)[C@@H](C)O)C(C)C)[C@@H](C)O [Example 76, N-alpha-[(S)-4-Carboxy-4-(19-carboxynonadecanoylamino)butyryl]-[His1,Glu14,His17,His35]-pramlintide] ({C20 diacid-γGlu}-HCNTATCATQRLAEFLHHSSNNFGPILPPTNVGSHTY-NH2; disulfide 2-7 (inferred); C-terminus assumed)
3 | 0.055 | 0.036 | 0.37 | CC[C@H](C)[C@H](NC(=O)[C@@H]1CCCN1C(=O)CNC(=O)[C@H](Cc1ccccc1)NC(=O)[C@H](CC(N)=O)NC(=O)[C@H](CC(N)=O)NC(=O)[C@H](CO)NC(=O)[C@H](CO)NC(=O)[C@H](Cc1c[nH]cn1)NC(=O)[C@H](CCCNC(=N)N)NC(=O)[C@H](CC(C)C)NC(=O)[C@H](Cc1ccccc1)NC(=O)[C@H](CCC(=O)O)NC(=O)[C@H](C)NC(=O)[C@H](CC(C)C)NC(=O)[C@H](CCCNC(=N)N)NC(=O)[C@H](CCC(N)=O)NC(=O)[C@@H](NC(=O)[C@H](C)NC(=O)[C@@H]1CSSC[C@H](NC(=O)CNC(=O)CC[C@H](NC(=O)CCCCCCCCCCCCCCCCCCC(=O)O)C(=O)O)C(=O)N[C@@H](CC(N)=O)C(=O)N[C@@H]([C@@H](C)O)C(=O)N[C@@H](C)C(=O)N[C@@H]([C@@H](C)O)C(=O)N1)[C@@H](C)O)C(=O)N[C@@H](CC(C)C)C(=O)N1CCC[C@H]1C(=O)N1CCC[C@H]1C(=O)N[C@H](C(=O)N[C@@H](CC(N)=O)C(=O)N[C@H](C(=O)NCC(=O)N[C@@H](CO)C(=O)N[C@@H](CC(N)=O)C(=O)N[C@H](C(=O)N1CCC[C@H]1C(N)=O)[C@@H](C)O)C(C)C)[C@@H](C)O [Example 88, N-alpha-[(S)-4-Carboxy-4-(19-carboxynonadecanoylamino)butyryl]-[Gly1,Glu14,Arg17,Pro37]-pramlintide] ({C20 diacid-γGlu}-GCNTATCATQRLAEFLRHSSNNFGPILPPTNVGSNTP-NH2; disulfide 2-7 (inferred); C-terminus assumed)
4 | 0.0395 | 0.0255 | 0.114 | CC[C@H](C)[C@H](NC(=O)[C@@H]1CCCN1C(=O)CNC(=O)[C@H](Cc1ccccc1)NC(=O)[C@H](CC(N)=O)NC(=O)[C@H](CC(N)=O)NC(=O)[C@H](CO)NC(=O)[C@H](CO)NC(=O)[C@H](Cc1c[nH]cn1)NC(=O)[C@H](CCCNC(=N)N)NC(=O)[C@H](CC(C)C)NC(=O)[C@H](Cc1ccccc1)NC(=O)[C@H](CCC(=O)O)NC(=O)[C@H](C)NC(=O)[C@H](CC(C)C)NC(=O)[C@H](CCCNC(=N)N)NC(=O)[C@H](CCC(N)=O)NC(=O)[C@@H](NC(=O)[C@H](C)NC(=O)[C@@H]1CSSC[C@H](NC(=O)[C@H](Cc2c[nH]cn2)NC(=O)CNC(=O)CC[C@H](NC(=O)CCCCCCCCCCCCCCCCCCC(=O)O)C(=O)O)C(=O)N[C@@H](CC(N)=O)C(=O)N[C@@H]([C@@H](C)O)C(=O)N[C@@H](C)C(=O)N[C@@H]([C@@H](C)O)C(=O)N1)[C@@H](C)O)C(=O)N[C@@H](CC(C)C)C(=O)N1CCC[C@H]1C(=O)N1CCC[C@H]1C(=O)N[C@H](C(=O)N[C@@H](CC(N)=O)C(=O)N[C@H](C(=O)NCC(=O)N[C@@H](CO)C(=O)N[C@@H](CC(N)=O)C(=O)N[C@H](C(=O)N1CCC[C@H]1C(N)=O)[C@@H](C)O)C(C)C)[C@@H](C)O [Example 89, N-alpha-[(S)-4-Carboxy-4-(19-carboxynonadecanoylamino)butyryl]-Gly-[His1,Glu14,Arg17,Pro37]-pramlintide] ({C20 diacid-γGlu}-GHCNTATCATQRLAEFLRHSSNNFGPILPPTNVGSNTP-NH2; disulfide 3-8 (inferred))
5 | 0.0475 | 0.0325 | 0.128 | CC[C@H](C)[C@H](NC(=O)[C@@H]1CCCN1C(=O)CNC(=O)[C@H](Cc1ccccc1)NC(=O)[C@H](CC(N)=O)NC(=O)[C@H](CC(N)=O)NC(=O)[C@H](CO)NC(=O)[C@H](CO)NC(=O)[C@H](Cc1c[nH]cn1)NC(=O)[C@H](CCCNC(=N)N)NC(=O)[C@H](CC(C)C)NC(=O)[C@H](Cc1ccccc1)NC(=O)[C@H](CCC(=O)O)NC(=O)[C@H](C)NC(=O)[C@H](CC(C)C)NC(=O)[C@H](CCCNC(=N)N)NC(=O)[C@H](CCC(N)=O)NC(=O)[C@@H](NC(=O)[C@H](C)NC(=O)[C@@H]1CSSC[C@H](NC(=O)[C@H](Cc2c[nH]cn2)NC(=O)CC[C@H](NC(=O)CCCCCCCCCCCCCCCCCCC(=O)O)C(=O)O)C(=O)N[C@@H](CC(N)=O)C(=O)N[C@@H]([C@@H](C)O)C(=O)N[C@@H](C)C(=O)N[C@@H]([C@@H](C)O)C(=O)N1)[C@@H](C)O)C(=O)N[C@@H](CC(C)C)C(=O)N1CCC[C@H]1C(=O)N1CCC[C@H]1C(=O)N[C@H](C(=O)N[C@@H](CC(N)=O)C(=O)N[C@H](C(=O)NCC(=O)N[C@@H](CO)C(=O)N[C@@H](CC(N)=O)C(=O)N[C@H](C(=O)N1CCC[C@H]1C(N)=O)[C@@H](C)O)C(C)C)[C@@H](C)O [Example 90, N-alpha-[(S)-4-Carboxy-4-(19-carboxynonadecanoylamino)butyryl]-[His1,Glu14,Arg17,Pro37]-pramlintide] ({C20 diacid-γGlu}-HCNTATCATQRLAEFLRHSSNNFGPILPPTNVGSNTP-NH2; disulfide 2-7 (inferred); C-terminus assumed)
